The results in this text go back to patent US9018224B2, “Substituted cyclopropyl compounds useful as GPR119 agonists” (Merck Sharp & Dohme Corp., priority 2011, dated 2015).

The experiment concerns the target T1, human GPR119 (Homo sapiens, UniProt Q8TDV5).
T1 sequence (Q8TDV5 1-308 limits assumed): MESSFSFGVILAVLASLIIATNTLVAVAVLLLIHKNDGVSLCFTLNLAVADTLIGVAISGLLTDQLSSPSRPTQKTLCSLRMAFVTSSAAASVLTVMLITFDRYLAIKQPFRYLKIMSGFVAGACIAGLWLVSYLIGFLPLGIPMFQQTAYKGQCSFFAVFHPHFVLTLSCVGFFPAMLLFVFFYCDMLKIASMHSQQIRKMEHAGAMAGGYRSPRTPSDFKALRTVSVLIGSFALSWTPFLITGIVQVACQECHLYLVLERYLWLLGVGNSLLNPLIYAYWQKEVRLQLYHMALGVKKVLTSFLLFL
Briefly: Measurement of GPR119 signaling by cAMP (LANCE cAMP kit or HTRF) in HEK293 cells transfected with human GPR119. It counts as cell-based. The settings on record: agonist cAMP response in HEK293 cells stably transfected with human GPR119; patent does not say which of the two cAMP formats (LANCE or HTRF). The protocol: Measurement of GPR119 Signaling Using LANCE 384-Well cAMP Kit
The adenylate cyclase assay was constructed following the LANCE™ cAMP Kit (Perkin Elmer, AD0264) instructions. […] The reaction was stopped by incubating with the supplied detection buffer containing the europium chelate of the Eu-SA/Biotin-cAMP tracer for 3 hours. The assay was performed in duplicate in a 384 well plate for duplicate plates. […] Basal activity was determined using a DMSO control and maximum response was defined as cAMP stimulation produced by an internal agonist control. Standard cAMP concentrations were assayed concurrently for conversion of fluorescence signal to cAMP level. The data was analyzed using 4-parameter curve fit in Microsoft Excel
Measurement of GPR119 Signaling Using a Cyclic AMP (cAMP) Homogenous Time Resolved Fluorescence (HTRF) Assay
Chinese hamster ovary (CHO) cell lines stably transfected with the permissive guanine nucleotide binding protein alpha 15 (Gα15) and murine GPR119 were maintained in DMEM media containing FBS, penicillin-streptomycin, puromycin, and G418 (geneticin). […] Agonist activation of the GPR119 receptor was measured in receptor transfected cells described above, treated with compounds of this invention, using a commercial homogenous time resolved fluorescence (HTRF) kit for measurement of cAMP (CisBio, Bedford, Mass.). The assay was performed in 96-well half-volume plates (murine) or 384-well plates (human) following the manufacturers instructions. Briefly, suspended cells were incubated with a dose titration of test compound at room temperature for 60 min, lysed, and incubated with HTRF reagents for an additional 60 min. The plate was read using an Envision multilabel reader (Perkin Elmer) adjusted to read time resolved fluorescence and the cAMP concentrations were extrapolated from a cAMP calibration curve. […] The concentration of test compound required to stimulate a half-maximal response (EC50), and efficacy as compared to an internal agonist control, was determined from a sigmoidal 4-parameter curve fit of the resulting plot of normalized activity versus compound concentration.
In general terms: In TR-FRET formats the signal depends on donor and acceptor labels being close together.
Broadly, the EC50 is the concentration that produces a half-maximal response. Lower therefore signals an effect from little substance. Turning to `CC1c2nc(C(F)(F)F)cn2CCN1C(=O)Cc1ccc(OCC[C@@H]2C[C@@H]2C2CCN(c3ncc(Cl)cn3)CC2)cc1F` (some centres unmarked) [Example 188], the EC50 came out at 0.55 nM.

In turn, `O=C(Cc1ccc(OCC[C@@H]2C[C@@H]2C2CCN(c3ncc(Cl)cn3)CC2)cc1F)N1CC(n2ccnc2)C1` [Example 118] showed an EC50 of 1.1 nM.

Take `O=C(Cc1ccc(OCC[C@@H]2C[C@@H]2C2CCN(c3ncc(Cl)cn3)CC2)cc1F)N1CCCc2[nH]nc(C3CC3)c21` [Example 196]: a half-maximal effect (EC50) was put at 5.4 nM.

In turn, `CCOc1cnc(N2CCC([C@H]3C[C@H]3CCOc3cc(F)c(CC(=O)N4CC(O)C4)c(F)c3)CC2)nc1` [Example 232] displayed an EC50 of 0.55 nM.

The compound `O=C(Cc1ccc(OCC[C@@H]2C[C@@H]2C2CCN(c3ncc(Cl)cn3)CC2)cc1)N1CCOCC1` [Example 5] came in with an EC50 of 3.6 nM.

Turning to `O=C(Cc1ccc(OCC[C@@H]2C[C@@H]2C2CCN(c3ncc(Cl)cn3)CC2)cc1F)N1CCc2c(C(F)(F)F)n[nH]c2C1` [Example 147], the EC50 was found to be 2.9 nM.

With `COCc1cnc(N2CCC([C@H]3C[C@H]3CCOc3cc(F)c(Cc4nnco4)c(F)c3)CC2)nc1` [Example 247], the EC50 was determined as 6.7 nM.

For `O=C(Cc1ccc(OCC[C@@H]2C[C@@H]2C2CCN(c3ncc(Cl)cn3)CC2)cc1F)NCC1(O)CC1` [Example 101], the EC50 came out at 5.2 nM.

With `CN(CC1CCCCO1)C(=O)Cc1ccc(OCC[C@@H]2C[C@@H]2C2CCN(c3ncc(Cl)cn3)CC2)cc1F` (some centres unmarked) [Example 156], the response was half-maximal at 2.8 nM (EC50).

For `COCc1cnc(N2CCC([C@H]3C[C@H]3CCOc3ccc(CC(=O)N4CC(O)C4)c(Cl)c3)CC2)nc1` [Example 29], the 50% effective concentration (EC50) is 2.4 nM.

The compound `CC1(C)CCN1C(=O)Cc1ccc(OCC[C@@H]2C[C@@H]2C2CCN(c3ncc(Cl)cn3)CC2)cc1F` [Example 97] showed an EC50 of 3.2 nM.

`COCc1cnc(N2CCC([C@H]3C[C@H]3CCOc3ccc(CC(=O)N4CCC(O)CC4)c(F)c3)CC2)nc1` [Example 56] showed an EC50 of 3.7 nM.

In the case of `O=C(Cc1ccc(OCC[C@@H]2C[C@@H]2C2CCN(c3ncc(Cl)cn3)CC2)cc1F)N1CCn2c(Cc3ccccc3)cnc2C1` [Example 181], the EC50 was 6.1 nM.

Compound `CN(CC(N)=O)C(=O)Cc1ccc(OCC[C@@H]2C[C@@H]2C2CCN(c3ncc(Cl)cn3)CC2)cc1F` [Example 159] yielded a half-maximal effective concentration (EC50) of 3.7 nM.

For the compound `C[C@H]1CCCN1C(=O)Cc1ccc(OCC[C@@H]2C[C@@H]2C2CCN(c3ncc(Cl)cn3)CC2)cc1F` [Example 117], the EC50 came out at 1.7 nM.

In the case of `O=C(Cc1ccc(OCC[C@@H]2C[C@@H]2C2CCN(c3ncc(Cl)cn3)CC2)cc1F)N1CCC(F)(F)C1` [Example 72], the EC50 is 0.5 nM.

`CN(C(=O)Cc1ccc(OCC[C@@H]2C[C@@H]2C2CCN(c3ncc(Cl)cn3)CC2)cc1F)C1CCS(=O)(=O)C1` (some centres unmarked) [Example 162] displayed an EC50 of 1.3 nM.

`COCc1cnc(N2CCC([C@H]3C[C@H]3CCOc3cc(F)c(CC(=O)N(C)C)c(F)c3)CC2)nc1` [Example 224] had an EC50 of 0.4 nM.

The compound `O=C(Cc1ccc(OCC[C@@H]2C[C@@H]2C2CCN(c3ncc(Cl)cn3)CC2)cc1F)N1CC(O)(C(F)(F)F)C1` [Example 67] had an EC50 of 0.68 nM.

On to `O=C(Cc1ccc(OCC[C@@H]2C[C@@H]2C2CCN(c3ncc(Cl)cn3)CC2)cc1F)N1CCc2oncc2C1` [Example 183], for which the EC50 is 0.93 nM.

As to `CC1c2nc(C(F)(F)F)nn2CCN1C(=O)Cc1ccc(OCC[C@@H]2C[C@@H]2C2CCN(c3ncc(Cl)cn3)CC2)cc1F` (some centres unmarked) [Example 177], a half-maximal response (EC50) required 0.6 nM.

`CC1(O)CN(C(=O)Cc2ccc(OCC[C@@H]3C[C@@H]3C3CCN(c4ncc(Cl)cn4)CC3)cc2F)C1` [Example 66] gave an EC50 of 0.4 nM.

`CCc1cnc(N2CCC([C@H]3C[C@H]3CCOc3ccc(CC(=O)N4CCC4)c(F)c3)CC2)nc1` [Example 207, 1-(azetidin-1-yl)-2-[4-(2-{(1S,2R)-2-[1-(5-ethylpyrimidin-2-yl)piperidin-4-yl]cyclopropyl}ethoxy)-2-fluorophenyl]ethanone] gave a concentration giving a half-maximal response (EC50) of 0.4 nM.

As to `O=C(Cc1ccc(OCC[C@@H]2C[C@@H]2C2CCN(c3ncc(Cl)cn3)CC2)cc1F)NC1(C(F)(F)F)CC1` [Example 87], the EC50 was determined as 3.6 nM.

`CN(C(=O)Cc1ccc(OCC[C@@H]2C[C@@H]2C2CCN(c3ncc(Cl)cn3)CC2)cc1F)C1CCCC1` [Example 82] showed an EC50 of 2.9 nM.

`COCc1cnc(N2CCC([C@H]3C[C@H]3CCOc3ccc(CC(=O)N4CCCCC4)c(F)c3)CC2)nc1` [Example 48] yielded an EC50 of 0.99 nM.

`O=C(Cc1ccc(OCC[C@@H]2C[C@@H]2C2CCN(c3ncc(Cl)cn3)CC2)cc1F)N1CCc2nccnc2C1` [Example 125] registered an EC50 of 0.96 nM.

As to `Cc1ccc2n1CCN(C(=O)Cc1ccc(OCC[C@@H]3C[C@@H]3C3CCN(c4ncc(Cl)cn4)CC3)cc1F)C2C` (some centres unmarked) [Example 191], the EC50 came out at 3.4 nM.

In turn, `CC1CCN(C(=O)Cc2ccc(OCC[C@@H]3C[C@@H]3C3CCN(c4ncc(Cl)cn4)CC3)cc2F)CC1` [Example 99] had an EC50 of 4 nM.

Take `O=C(Cc1ccc(OCC[C@@H]2C[C@@H]2C2CCN(c3ncc(Cl)cn3)CC2)cc1F)N1CC(n2cccn2)C1` [Example 119]: a half-maximal response (EC50) required 0.81 nM.

The compound `CN(C(=O)Cc1ccc(OCC[C@@H]2C[C@@H]2C2CCN(c3ncc(Cl)cn3)CC2)cc1F)C1CCOCC1` [Example 155] came in with a concentration giving a half-maximal response (EC50) of 1.3 nM.

Compound `O=C(Cc1ccc(OCC[C@@H]2C[C@@H]2C2CCN(c3ncc(Cl)cn3)CC2)cc1F)N1CCc2[nH]nnc2C1` [Example 152] yielded an EC50 of 1.9 nM.

On to `Fc1cc(OCC[C@@H]2C[C@@H]2C2CCN(c3ncc(Cl)cn3)CC2)ccc1Cc1nnco1` [Example 245, 5-chloro-2-{4-[(1R,2S)-2-(2-{3-fluoro-4-[(1,3,4-oxadizol-2-yl)methyl]phenoxy}ethyl)cyclopropyl]piperidin-1-yl}pyrimidine], for which a half-maximal effect (EC50) was put at 4.1 nM.

`COCc1cnc(N2CCC([C@H]3C[C@H]3CCOc3cc(F)c(CC(=O)N4CC(OC)C4)c(F)c3)CC2)nc1` [Example 225] came in with an EC50 of 0.35 nM.

For `COCc1cnc(N2CCC([C@H]3C[C@H]3CCOc3ccc(CC(=O)N4CC(O)C4)cc3)CC2)nc1` [Example 7, 1-(3-hydroxyazetidin-1-yl)-2-(4-{2-[(1S,2R)-2-{1-[5-(methoxymethyl)pyrimidin-2-yl]piperidin-4-yl}cyclopropyl]ethoxy}phenyl)ethanone], the EC50 is 7.7 nM.

`COc1cnc(N2CCC([C@H]3C[C@H]3CCOc3cc(F)c(CC(=O)N4CC(F)(F)C4)c(F)c3)CC2)nc1` [Example 217] registered an EC50 of 0.07 nM.

`CCC(CO)NC(=O)Cc1ccc(OCC[C@@H]2C[C@@H]2C2CCN(c3ncc(Cl)cn3)CC2)cc1F` (some centres unmarked) [Example 114] displayed an EC50 of 3.7 nM.

On to `COc1cnc(N2CCC([C@H]3C[C@H]3CCOc3cc(F)c(CC(=O)N4CC(OC)C4)c(F)c3)CC2)nc1` [Example 211], for which the EC50 is 0.11 nM.

The compound `O=C(Cc1ccc(OCC[C@@H]2C[C@@H]2C2CCN(c3ncc(Cl)cn3)CC2)cc1F)N1CCc2sccc2C1` [Example 185] had an EC50 of 2.2 nM.

Compound `COCc1cnc(N2CCC([C@H]3C[C@H]3CCOc3cc(F)c(CC(=O)N4CC(F)C4)c(F)c3)CC2)nc1` [Example 220] came in with an EC50 of 0.14 nM.

`CC1(CNC(=O)Cc2ccc(OCC[C@@H]3C[C@@H]3C3CCN(c4ncc(Cl)cn4)CC3)cc2F)CCC1` [Example 96] had an EC50 of 5.1 nM.

In turn, `O=C(Cc1ccc(OCC[C@@H]2C[C@@H]2C2CCN(c3ncc(Cl)cn3)CC2)cc1F)NC1CC1(F)F` (some centres unmarked) [Example 88] came in with an EC50 of 1.7 nM.

For `O=C(Cc1ccc(OCC[C@@H]2C[C@@H]2C2CCN(c3ncc(Cl)cn3)CC2)cc1F)N1CCC(O)CC1` [Example 163], it took 1.7 nM to reach a half-maximal effect (EC50).

With `COCc1cnc(N2CCC([C@H]3C[C@H]3CCOc3ccc(CC(=O)N(C)C4CC4)c(F)c3)CC2)nc1` [Example 55], the EC50 is 4.4 nM.
